Measurements as given in patent publication US7531164B2 (priority 2005, dated 2009).

Assays:
HIV (denoted NL4-3) = assay type: cell-based; settings: NL4-3 envelope
VSV = assay type: cell-based
AMLV = assay type: cell-based; settings: AMLV envelope
[1] = Working Example V: asthma exacerbation frequency; assay type: in vivo, human; settings: 1 gm/day LNMA four times a week for a year; normally four exacerbations of asthma per year
From the text: An asymptomatic person who normally has four exacerbations of asthma per year is given 1 gm/day LNMA four times a week for a year. Exacerbation frequency decreases to once a year.

[2] = tested on: EGFR expressing metastatic colorectal cancer; experiment: Working Example XIII: EGFR expressing metastatic colorectal cancer patient; assay type: in vivo, human; settings: 5 gm L-NMA or 10 mg vitamin B12 infused concurrently with cebuximab
Procedure: A person with EGFR expressing metastatic colorectal cancer is given an initial loading dose of 400 mg/m^2 cebuximab as a 120 minute infusion at 2.5 mL/min with weekly maintenance doses of 250 mg/M^2 over 60 minutes at 2.5 mL/min. Concurrently the patient is infused with 5 gm L-NMA or 10 mg vitamin B12.

[3] = Working Example XII: atherosclerosis patient, anti-VEGFR plus NO inhibitor/scavenger; assay type: in vivo, human; settings: 2 gms/day L-NMA or 10 mg/day vitamin B-12 with 100 mg/kg anti-VEGFR three times a week; six months later
Procedure: A person with atherosclerosis is administered 100 mg/kg anti-VEGFR three times a week via infusion and 2 gms/day of L-NMA or 10 mg/day vitamin B-12.

HIV = experiment: Working Example I: prophylaxis after exposure to HIV positive partner; assay type: in vivo, human; settings: 1 gm L-NMMA Q 6 hrs for 3 days with AZT 600 mg; day 7
Procedure: A person finds that their partner the previous night is HIV positive. They present to the Emergency Room where they are given a prophylactic dose of AZT (600 mg dose) and a dose of 1 gm L-NMMA Q 6 hrs for 3 days. Blood titers for HIV are restive at day 7.

influenza A = experiment: Working Example XVII: prophylaxis in immunocompromised patient exposed to influenza; assay type: in vivo, human; settings: 5 gms/day L-NMA p.o. for one week, then amantadine 100 mg p.o. b.i.d. for two weeks
Procedure: An immunocompromised patient is exposed to a patient diagnosed with influenza. The patient is given 5 gms/day L-NMA p.o. After one week the patient tests positive for influenza A and L-NMA administration is stopped and the patient is given amantadine, 100 mg p.o., b.i.d. for two weeks.

colon cancer = experiment: Working Example III: prophylaxis of colon cancer in immunocompromised patient; assay type: in vivo, human; settings: 5 gm LNMA or 10 mg vitamin B12 infused concurrently with cetuximab; two years later
Procedure: An immunocompromised patient at risk for colon cancer is given an initial loading dose of 200 mg/M^2 cetuximab as a 120 minute infusion with weekly maintenance doses of 125 mg/M^2 over 60 minutes weekly. Perfusion rate is 4 mL/min. Concurrently the patient is infused with 5 gm LNMA or 10 mg vitamin B12.
For each 50 ml vial: • 100 mg cetuximab • at a concentration of 2 mg/ml • 1mg LNMA or 2 mg Vitamin B-12 • 8.48 mg/ml sodium chloride • 1.88 mg/ml sodium phosphate dibasic heptahydrate • 0.42 mg/ml sodium phosphate monohydrate • water for injection to […]
The composition is administered in the case of Working Example III.

[4] = Working Example XIV: unstable angina patient, abciximab plus NO inhibitor/scavenger; assay type: in vivo, human; settings: L-NMA (5g) or 10 mg vitamin B-12 IV with abciximab and heparin; at 30 days
Procedure: A patient with unstable angina presents to the emergency room.
Abciximab is administered at 0.25 mg/kg as an intravenous bolus followed by infusion of […] for 12 hours. Heparin is concurrently administered in a different line with an initial dosage of 70 μg/kg with continuing infusion to maintain ACT of 200-300.
L-NMA (5g) or 10 mg vitamin B-12 is administered IV through a different line.
Need for urgent revascularization is only 2% at 30 days.

hepatitis C = experiment: Working Example XI: transfusion of hepatitis C infected whole blood containing L-NMA; assay type: in vivo, human; settings: whole blood containing 1 gm L-NMA per unit, infected with hepatitis C
From the text: Whole blood containing 1 gm L-NMA per unit is transfused into a patient.

[5] = Working Example IV: beta agonist response in heart failure patient; assay type: in vivo, human; settings: 0.1 mg/kg LNMA for 24 hours; improves from 3 L/min
Procedure: A person with heart failure is admitted to a hospital for a dobutamine holiday (where a congestive heart failure patient spends 1-2 days in the hospital to receive a dobutamine drip every month or so). The patient is administered 0.1 mg/kg LNMA for 24 hours. Beta agonist sensitive response as measured by cardiac output improves from 3 L/min. to 3.5 L/min.

E.coli and HIV = experiment: Working Example II: prophylaxis after exposure to blood infected by E.coli and HIV; assay type: in vivo, human; settings: B12 10 mg with AZT 600 mg and ampicillin 1 gm for 6 days; at a week
Procedure: A patient is exposed to blood infected by “E.coli” and HIV following coronary artery bypass surgery. AZT (prophylactic dose of 600 mg) and B12 (which scavenges NO) (dose 10 mg) are given in combination with ampicillin (prophylactic dose of 1 gm) for 6 days Bacterial and HIV titer are undetectable at a week.

[6] = compared to envelope protein with no anti-CD4 or inhibitor

SMILES | Mean (cells infected) (HIV (denoted NL4-3); […], no-inhibitor NL4-3 mean 108400, cells only 66) | % Infection (HIV (denoted NL4-3); [6]) [%] | % Infection (VSV) [%] | Mean (cells infected) (VSV) | Mean (cells infected) (AMLV; […], no-inhibitor AMLV mean 164904) | % Infection (AMLV; [6]) [%] | Exacerbation frequency [1] | disease related symptoms [2] | plaque destabilization and heart attack [3] | Blood titers for HIV (HIV) | Flu symptoms (influenza A) | colon cancer status (colon cancer) | Need for urgent revascularization [4] [%] | development of hepatitis C (hepatitis C) | Beta agonist sensitive response as measured by cardiac output [5] [L/min] | Bacterial and HIV titer (E.coli and HIV)
COC(=O)[C@@H](N)CCCNC(=N)N[N+](=O)[O-] [Inhibitor A, N^G-nitro-L-arginine methyl ester] | 50359 | 46.5 | 41.9 | 120209 | 60090 | 36.4 |  |  |  |  |  |  |  |  |  | 
CNC(=N)NCCC[C@H](N)C(=O)O [L-NMA, L-methylarginine] |  |  |  |  |  |  | once a year | Improvement in disease related symptoms is noted | plaque is not destabilized and no heart attack has occurred | restive | Flu symptoms disappear | colon cancer free | 2 | does not develop hepatitis C | 3.5 | 
C/C1=C2/[N-][C@H]([C@H](CC(N)=O)[C@@]2(C)CCC(=O)NC[C@@H](C)OP(=O)([O-])O[C@H]2[C@@H](O)[C@@H](n3cnc4cc(C)c(C)cc43)O[C@@H]2CO)[C@]2(C)N=C(/C(C)=C3N=C(/C=C4N=C1[C@@H](CCC(N)=O)C\4(C)C)[C@@H](CCC(N)=O)[C@]\3(C)CC(N)=O)[C@@H](CCC(N)=O)[C@]2(C)CC(N)=O.[Co+3].[OH-] [vitamin B12, hydroxocobalamin] |  |  |  |  |  |  |  | Improvement in disease related symptoms is noted | plaque is not destabilized and no heart attack has occurred |  |  | colon cancer free | 2 |  |  | undetectable
